ChEMBL document CHEMBL4004849, “Tetrazolylmethyl quinolines: Design, docking studies, synthesis, anticancer and antifungal analyses” (2017)
Converted amounts (≈) assume the structure as drawn. The source made the active and inactive calls. The rule behind the calls is not given here.

Tested on: OVCAR-5
Assay: Growth inhibition of human OVCAR5 cells at 10^-5 M incubated for 48 hrs by sulforhodamine B assay relative to control
Type: functional
Settings: not given

Structure (SMILES)	growth inhibition (GI)
Cc1ccc2nc(Cl)c(Cn3nnnc3Cc3ccccc3)cc2c1	Active

Tested on: TK-10
Assay: Growth inhibition of human TK10 cells at 10^-5 M incubated for 48 hrs by sulforhodamine B assay relative to control
Type: functional
Settings: not given

Structure (SMILES)	growth inhibition (GI)
Cc1ccc2nc(Cl)c(Cn3nnnc3Cc3ccccc3)cc2c1	Active

Tested on: OVCAR-8
Assay: Growth inhibition of human OVCAR8 cells at 10^-5 M incubated for 48 hrs by sulforhodamine B assay relative to control
Type: functional
Settings: not given

Structure (SMILES)	growth inhibition (GI)
Cc1ccc2nc(Cl)c(Cn3nnnc3Cc3ccccc3)cc2c1	Active

Tested on: MOLT-4
Assay: Growth inhibition of human MOLT4 cells at 10^-5 M incubated for 48 hrs by sulforhodamine B assay relative to control
Type: functional
Settings: not given

Structure (SMILES)	growth inhibition (GI)
Cc1ccc2nc(Cl)c(Cn3nnnc3Cc3ccccc3)cc2c1	Active

Tested on: MCF7
Assay: Growth inhibition of human MCF7 cells at 10^-5 M incubated for 48 hrs by sulforhodamine B assay relative to control
Type: functional
Settings: not given

Structure (SMILES)	growth inhibition (GI)
Cc1ccc2nc(Cl)c(Cn3nnnc3Cc3ccccc3)cc2c1	Active

Tested on: HCT-15
Assay: Growth inhibition of human HCT15 cells at 10^-5 M incubated for 48 hrs by sulforhodamine B assay relative to control
Type: functional
Settings: not given

Structure (SMILES)	growth inhibition (GI)
Cc1ccc2nc(Cl)c(Cn3nnnc3Cc3ccccc3)cc2c1	Active

Tested on: SK-MEL-5
Assay: Growth inhibition of human SK-MEL-5 cells at 10^-5 M incubated for 48 hrs by sulforhodamine B assay relative to control
Type: functional
Settings: not given

Structure (SMILES)	growth inhibition (GI)
Cc1ccc2nc(Cl)c(Cn3nnnc3Cc3ccccc3)cc2c1	Active

Tested on: Candida albicans
Assay: Antifungal activity against Candida albicans after 24 hrs by serial dilution method
Type: functional
Settings: not given

Structure (SMILES)	MIC [µg/mL]
Cc1ccc2nc(Cl)c(Cn3nnnc3Cc3ccccc3)cc2c1	25 (≈ 71.5 µM)

Tested on: KM12
Assay: Growth inhibition of human KM12 cells at 10^-5 M incubated for 48 hrs by sulforhodamine B assay relative to control
Type: functional
Settings: not given

Structure (SMILES)	growth inhibition (GI)
Cc1ccc2nc(Cl)c(Cn3nnnc3Cc3ccccc3)cc2c1	Active

Tested on: HCC 2998
Assay: Growth inhibition of human HCC2998 cells at 10^-5 M incubated for 48 hrs by sulforhodamine B assay relative to control
Type: functional
Settings: not given

Structure (SMILES)	growth inhibition (GI)
Cc1ccc2nc(Cl)c(Cn3nnnc3Cc3ccccc3)cc2c1	Active

Tested on: EKVX
Assay: Growth inhibition of human EKVX cells at 10^-5 M incubated for 48 hrs by sulforhodamine B assay relative to control
Type: functional
Settings: not given

Structure (SMILES)	growth inhibition (GI)
Cc1ccc2nc(Cl)c(Cn3nnnc3Cc3ccccc3)cc2c1	Active

Tested on: HT-29
Assay: Growth inhibition of human HT-29 cells at 10^-5 M incubated for 48 hrs by sulforhodamine B assay relative to control
Type: functional
Settings: not given

Structure (SMILES)	growth inhibition (GI)
Cc1ccc2nc(Cl)c(Cn3nnnc3Cc3ccccc3)cc2c1	Active

Tested on: UO-31
Assay: Growth inhibition of human UO31 cells at 10^-5 M incubated for 48 hrs by sulforhodamine B assay relative to control
Type: functional
Settings: not given

Structure (SMILES)	growth inhibition (GI)
Cc1ccc2nc(Cl)c(Cn3nnnc3Cc3ccccc3)cc2c1	Active

Tested on: M14
Assay: Growth inhibition of human M14 cells at 10^-5 M incubated for 48 hrs by sulforhodamine B assay relative to control
Type: functional
Settings: not given

Structure (SMILES)	growth inhibition (GI)
Cc1ccc2nc(Cl)c(Cn3nnnc3Cc3ccccc3)cc2c1	Active

Tested on: NCI-H23
Assay: Growth inhibition of human NCI-H23 cells at 10^-5 M incubated for 48 hrs by sulforhodamine B assay relative to control
Type: functional
Settings: not given

Structure (SMILES)	growth inhibition (GI)
Cc1ccc2nc(Cl)c(Cn3nnnc3Cc3ccccc3)cc2c1	Active

Tested on: Aspergillus fumigatus
Assay: Antifungal activity against Aspergillus fumigatus after 24 hrs by serial dilution method
Type: functional
Settings: not given

Structure (SMILES)	MIC [µg/mL]
Cc1ccc2nc(Cl)c(Cn3nnnc3Cc3ccccc3)cc2c1	25 (≈ 71.5 µM)

Tested on: 786-0
Assay: Growth inhibition of human 786-0 cells at 10^-5 M incubated for 48 hrs by sulforhodamine B assay relative to control
Type: functional
Settings: not given

Structure (SMILES)	growth inhibition (GI)
Cc1ccc2nc(Cl)c(Cn3nnnc3Cc3ccccc3)cc2c1	Active

Tested on: SW-620
Assay: Growth inhibition of human SW620 cells at 10^-5 M incubated for 48 hrs by sulforhodamine B assay relative to control
Type: functional
Settings: not given

Structure (SMILES)	growth inhibition (GI)
Cc1ccc2nc(Cl)c(Cn3nnnc3Cc3ccccc3)cc2c1	Active

Tested on: BT-549
Assay: Growth inhibition of human BT549 cells at 10^-5 M incubated for 48 hrs by sulforhodamine B assay relative to control
Type: functional
Settings: not given

Structure (SMILES)	growth inhibition (GI)
Cc1ccc2nc(Cl)c(Cn3nnnc3Cc3ccccc3)cc2c1	Active

Tested on: Hs-578T
Assay: Growth inhibition of human Hs 578T cells at 10^-5 M incubated for 48 hrs by sulforhodamine B assay relative to control
Type: functional
Settings: not given

Structure (SMILES)	growth inhibition (GI)
Cc1ccc2nc(Cl)c(Cn3nnnc3Cc3ccccc3)cc2c1	Active

Tested on: SNB-75
Assay: Growth inhibition of human SNB75 cells at 10^-5 M incubated for 48 hrs by sulforhodamine B assay relative to control
Type: functional
Settings: not given

Structure (SMILES)	growth inhibition (GI)
Cc1ccc2nc(Cl)c(Cn3nnnc3Cc3ccccc3)cc2c1	Active

Tested on: K562
Assay: Growth inhibition of human K562 cells at 10^-5 M incubated for 48 hrs by sulforhodamine B assay relative to control
Type: functional
Settings: not given

Structure (SMILES)	growth inhibition (GI)
Cc1ccc2nc(Cl)c(Cn3nnnc3Cc3ccccc3)cc2c1	Active

Tested on: A549
Assay: Growth inhibition of human A549/ATCC cells at 10^-5 M incubated for 48 hrs by sulforhodamine B assay relative to control
Type: functional
Settings: not given

Structure (SMILES)	growth inhibition (GI)
Cc1ccc2nc(Cl)c(Cn3nnnc3Cc3ccccc3)cc2c1	Active

Tested on: COLO 205
Assay: Growth inhibition of human COLO205 cells at 10^-5 M incubated for 48 hrs by sulforhodamine B assay relative to control
Type: functional
Settings: not given

Structure (SMILES)	growth inhibition (GI)
Cc1ccc2nc(Cl)c(Cn3nnnc3Cc3ccccc3)cc2c1	Active

Tested on: RXF 393
Assay: Growth inhibition of human RXF393 cells at 10^-5 M incubated for 48 hrs by sulforhodamine B assay relative to control
Type: functional
Settings: not given

Structure (SMILES)	growth inhibition (GI)
Cc1ccc2nc(Cl)c(Cn3nnnc3Cc3ccccc3)cc2c1	Active

Tested on: U-251
Assay: Growth inhibition of human U251 cells at 10^-5 M incubated for 48 hrs by sulforhodamine B assay relative to control
Type: functional
Settings: not given

Structure (SMILES)	growth inhibition (GI)
Cc1ccc2nc(Cl)c(Cn3nnnc3Cc3ccccc3)cc2c1	Active

Tested on: SK-MEL-28
Assay: Growth inhibition of human SK-MEL-28 cells at 10^-5 M incubated for 48 hrs by sulforhodamine B assay relative to control
Type: functional
Settings: not given

Structure (SMILES)	growth inhibition (GI)
Cc1ccc2nc(Cl)c(Cn3nnnc3Cc3ccccc3)cc2c1	Active

Tested on: SNB-19
Assay: Growth inhibition of human SNB19 cells at 10^-5 M incubated for 48 hrs by sulforhodamine B assay relative to control
Type: functional
Settings: not given

Structure (SMILES)	growth inhibition (GI)
Cc1ccc2nc(Cl)c(Cn3nnnc3Cc3ccccc3)cc2c1	Active

Tested on: SR
Assay: Growth inhibition of human SR cells at 10^-5 M incubated for 48 hrs by sulforhodamine B assay relative to control
Type: functional
Settings: not given

Structure (SMILES)	growth inhibition (GI)
Cc1ccc2nc(Cl)c(Cn3nnnc3Cc3ccccc3)cc2c1	Active

Tested on: UACC-62
Assay: Growth inhibition of human UACC62 cells at 10^-5 M incubated for 48 hrs by sulforhodamine B assay relative to control
Type: functional
Settings: not given

Structure (SMILES)	growth inhibition (GI)
Cc1ccc2nc(Cl)c(Cn3nnnc3Cc3ccccc3)cc2c1	Active

Tested on: T47D
Assay: Growth inhibition of human T47D cells at 10^-5 M incubated for 48 hrs by sulforhodamine B assay relative to control
Type: functional
Settings: not given

Structure (SMILES)	growth inhibition (GI)
Cc1ccc2nc(Cl)c(Cn3nnnc3Cc3ccccc3)cc2c1	Active

Tested on: ACHN
Assay: Growth inhibition of human ACHN cells at 10^-5 M incubated for 48 hrs by sulforhodamine B assay relative to control
Type: functional
Settings: not given

Structure (SMILES)	growth inhibition (GI)
Cc1ccc2nc(Cl)c(Cn3nnnc3Cc3ccccc3)cc2c1	Active

Tested on: LOX IMVI
Assay: Growth inhibition of human LOXIMVI cells at 10^-5 M incubated for 48 hrs by sulforhodamine B assay relative to control
Type: functional
Settings: not given

Structure (SMILES)	growth inhibition (GI)
Cc1ccc2nc(Cl)c(Cn3nnnc3Cc3ccccc3)cc2c1	Active

Tested on: SF-295
Assay: Growth inhibition of human SF295 cells at 10^-5 M incubated for 48 hrs by sulforhodamine B assay relative to control
Type: functional
Settings: not given

Structure (SMILES)	growth inhibition (GI)
Cc1ccc2nc(Cl)c(Cn3nnnc3Cc3ccccc3)cc2c1	Active

Tested on: NCI-H226
Assay: Growth inhibition of human NCI-H226 cells at 10^-5 M incubated for 48 hrs by sulforhodamine B assay relative to control
Type: functional
Settings: not given

Structure (SMILES)	growth inhibition (GI)
Cc1ccc2nc(Cl)c(Cn3nnnc3Cc3ccccc3)cc2c1	Active

Tested on: SN12C
Assay: Growth inhibition of human SN12C cells at 10^-5 M incubated for 48 hrs by sulforhodamine B assay relative to control
Type: functional
Settings: not given

Structure (SMILES)	growth inhibition (GI)
Cc1ccc2nc(Cl)c(Cn3nnnc3Cc3ccccc3)cc2c1	Active

Tested on: MDA-MB-231
Assay: Growth inhibition of human MDA-MB-231/ATCC cells at 10^-5 M incubated for 48 hrs by sulforhodamine B assay relative to control
Type: functional
Settings: not given

Structure (SMILES)	growth inhibition (GI)
Cc1ccc2nc(Cl)c(Cn3nnnc3Cc3ccccc3)cc2c1	Active

Tested on: SK-OV-3
Assay: Growth inhibition of human SKOV3 cells at 10^-5 M incubated for 48 hrs by sulforhodamine B assay relative to control
Type: functional
Settings: not given

Structure (SMILES)	growth inhibition (GI)
Cc1ccc2nc(Cl)c(Cn3nnnc3Cc3ccccc3)cc2c1	Active

Tested on: HL-60(TB)
Assay: Growth inhibition of human HL-60(TB) cells at 10^-5 M incubated for 48 hrs by sulforhodamine B assay relative to control
Type: functional
Settings: not given

Structure (SMILES)	growth inhibition (GI)
Cc1ccc2nc(Cl)c(Cn3nnnc3Cc3ccccc3)cc2c1	Active

Tested on: OVCAR-3
Assay: Growth inhibition of human OVCAR3 cells at 10^-5 M incubated for 48 hrs by sulforhodamine B assay relative to control
Type: functional
Settings: not given

Structure (SMILES)	growth inhibition (GI)
Cc1ccc2nc(Cl)c(Cn3nnnc3Cc3ccccc3)cc2c1	Active

Tested on: OVCAR-4
Assay: Growth inhibition of human OVCAR4 cells at 10^-5 M incubated for 48 hrs by sulforhodamine B assay relative to control
Type: functional
Settings: not given

Structure (SMILES)	growth inhibition (GI)
Cc1ccc2nc(Cl)c(Cn3nnnc3Cc3ccccc3)cc2c1	Active

Tested on: Aspergillus fumigatus
Assay: Antifungal activity against Aspergillus fumigatus at 100 ug/ml by disc diffusion method
Type: functional
Settings: read-out: IZ

Structure (SMILES)	zone of inhibition at 100 µg/mL [mm]
Cc1ccc2nc(Cl)c(Cn3nnnc3Cc3ccccc3)cc2c1	10

Tested on: SF-268
Assay: Growth inhibition of human SF268 cells at 10^-5 M incubated for 48 hrs by sulforhodamine B assay relative to control
Type: functional
Settings: not given

Structure (SMILES)	growth inhibition (GI)
Cc1ccc2nc(Cl)c(Cn3nnnc3Cc3ccccc3)cc2c1	Active

Tested on: SF-539
Assay: Growth inhibition of human SF539 cells at 10^-5 M incubated for 48 hrs by sulforhodamine B assay relative to control
Type: functional
Settings: not given

Structure (SMILES)	growth inhibition (GI)
Cc1ccc2nc(Cl)c(Cn3nnnc3Cc3ccccc3)cc2c1	Active

Tested on: UACC-257
Assay: Growth inhibition of human UACC257 cells at 10^-5 M incubated for 48 hrs by sulforhodamine B assay relative to control
Type: functional
Settings: not given

Structure (SMILES)	growth inhibition (GI)
Cc1ccc2nc(Cl)c(Cn3nnnc3Cc3ccccc3)cc2c1	Active
